Holding throughout (type): in vivo
Assay [1] concerns Alopecurus myosuroides (ALOMY). The assay is described as follows: Glasshouse assay for herbicidal activity, pre-/post-emergence (percentage phytotoxicity). The following applies: Alopecurus myosuroides, Rate 250 g/ha, 100%=total damage, 0%=no damage. In a few lines: (§1)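 Visual score (0–100% damage) at 15DAA post-em / 20DAA pre-em. Pots, std soil; treated 1 d (pre) or ~12 d (post) after sowing. 24/18 °C warm spp., 20/16 °C cool spp., 16 h light, 65% RH.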

The subject of assay [2] is Avena fatua (AVEFA). The description is as above. Particulars: Avena fatua, Rate 250 g/ha, 100%=total damage, 0%=no damage. In a few lines:
as §1

Assay [3] relates to Echinochloa crus-galli (ECHCG). The assay is described as above. The following applies: Echinochloa crus-galli, Rate 250 g/ha, 100%=total damage, 0%=no damage. In a few lines: as §1
Assay [4] has as its system Lolium perenne (LOLPE). The assay is described as above. Particulars: Lolium perenne, Rate 250 g/ha, 100%=total damage, 0%=no damage. In a few lines:
as §1

For assay [5], the system named is wheat. The assay is described as follows: Post-emergence herbicidal activity against cereal crops (wheat) +/- safener, crop selectivity. Particulars: 100%=total damage to plant, 0%=no damage; for Post-emergence herbicidal activity against wheat (percentage phytotoxicity), +CQC: 250 g/ha, plus safener cloquintocet-mexyl (CQC) applied at 50 g/ha; for percent phytotoxicity (crop damage) to wheat at 250 g/ha: Triticum aestivum, 360 h, without safener, read-out: Post-emergence herbicidal activity against wheat (percentage phytotoxicity), Wheat - CQC. How it is done:
Seeds of a variety of monocotyledonous and dicotyledonous test plants are sown in standard soil in pots. The plants are cultivated for one day (for pre-emergence) or for about 12 days (for post-emergence) under controlled conditions in a glasshouse (warm climate species at 24/18° C., cool climate species at 20/16° C., both at day/night; 16 hours light; 65% humidity). The test plants are then grown on, in a glasshouse (greenhouse) under controlled conditions (warm climate species at 24/18° C., cool climate species at 20/16° C., both at day/night; 16 hours light; 65% humidity) and are watered twice daily. 15 days after application of the test herbicide (15DAA) (for post-emergence), and 20 days after application of the test herbicide (20DAA) (for pre-emergence), the test plants are evaluated visually, and an assessed percentage phytotoxicity score is given for each herbicidal application on each plant species (with 100%=total damage to plant; 0%=no damage to plant).

[6] abbreviates: 360 h, post-emergence, visual assessment 15 DAA, read-out: Post-emergence herbicidal activity (percentage phytotoxicity), ALOMY POST.
The mark [7] stands for this setting: 480 h, pre-emergence, visual assessment 20 DAA, read-out: Pre-emergence herbicidal activity (percentage phytotoxicity), ALOMY PRE.
[8] abbreviates: post-emergence, 360 h, post-emergence, visual assessment 15 DAA, read-out: Post-emergence herbicidal activity (percentage phytotoxicity), AVEFA POST.
Where [9] appears, read: pre-emergence, 480 h, pre-emergence, visual assessment 20 DAA, read-out: Pre-emergence herbicidal activity (percentage phytotoxicity), AVEFA PRE.
[10] abbreviates: post-emergence, 360 h, post-emergence, visual assessment 15 DAA, read-out: Post-emergence herbicidal activity (percentage phytotoxicity), ECHCG POST.
The mark [11] stands for this setting: pre-emergence, 480 h, pre-emergence, visual assessment 20 DAA, read-out: Pre-emergence herbicidal activity (percentage phytotoxicity), ECHCG PRE.
[12] abbreviates: post-emergence, 360 h, post-emergence, visual assessment 15 DAA, read-out: Post-emergence herbicidal activity (percentage phytotoxicity), LOLPE POST.
The mark [13] stands for this setting: pre-emergence, 480 h, pre-emergence, visual assessment 20 DAA, read-out: Pre-emergence herbicidal activity (percentage phytotoxicity), LOLPE PRE.

Where two headings read alike, the source gives them in different places.

For `Cc1cc(C)c(C2C(=O)CC(CCNC(=O)NC(=O)c3ccc(OC(F)(F)F)cc3)C2=O)c(C)c1` (centres unmarked) [Compound A71], the pest or weed control at 250 g/ha in assay [1] (setting [6]) turned out to be 20%; in assay [1] (setting [7]), 30%; in assay [2] (setting [8]) it was 50%; in assay [2] (setting [9]), 20%; in assay [3] (setting [10]), 80%; in assay [3] (setting [11]), 0%. The pest or weed control at 250 g/ha turned out to be 80% in assay [4] (setting [12]) and 40% in assay [4] (setting [13]). The “Post-emergence herbicidal activity against wheat (percentage phytotoxicity), +CQC” value in assay [5] is on record as 20%. In assay [5], the percent phytotoxicity (crop damage) to wheat at 250 g/ha is 80%.
As to `CC#Cc1cc(C)c(C2C(=O)CC(CCNC(=O)NC(C)(C)C)C2=O)c(C)c1` (centres unmarked) [Compound A23], the pest or weed control at 250 g/ha in assay [1] (setting [6]) stood at 90%; in assay [1] (setting [7]) it was 100%; in assay [2] (setting [8]), 100%; in assay [2] (setting [9]), 100%; in assay [3] (setting [10]) it was 100%; in assay [3] (setting [11]), 100%. The pest or weed control at 250 g/ha in assay [4] (setting [12]) was found to be 90%; in assay [4] (setting [13]), 100%. The “Post-emergence herbicidal activity against wheat (percentage phytotoxicity), +CQC” value in assay [5] came out at 80%. Further, in assay [5], the percent phytotoxicity (crop damage) to wheat at 250 g/ha was 90%.
With `Cc1cc(C)c(C2C(=O)CC(CCNS(=O)(=O)c3ccccc3Cl)C2=O)c(C)c1` (centres unmarked) [Compound A80], the pest or weed control at 250 g/ha in assay [1] (setting [6]) was found to be 10%; in assay [1] (setting [7]), 10%; in assay [2] (setting [8]) it was 0%; in assay [2] (setting [9]), 0%; in assay [3] (setting [10]), 0%; in assay [3] (setting [11]), 40%. Also, the pest or weed control at 250 g/ha in assay [4] (setting [12]) and in assay [4] (setting [13]) was 60% throughout. Also, in assay [5], the “Post-emergence herbicidal activity against wheat (percentage phytotoxicity), +CQC” value stood at 0%. In addition, the percent phytotoxicity (crop damage) to wheat at 250 g/ha in assay [5] is 0%.
For `Cc1cc(C)c(C2C(=O)CC(CCNc3ncc(C(F)(F)F)cc3Cl)C2=O)c(C)c1` (centres unmarked) [Compound A36], the pest or weed control at 250 g/ha in assay [1] (setting [6]) was 90%; in assay [1] (setting [7]), 60%; in assay [2] (setting [8]), 100%; in assay [2] (setting [9]) it was 90%; in assay [3] (setting [10]), 90%; in assay [3] (setting [11]), 90%. Besides, the pest or weed control at 250 g/ha worked out at 100% in assay [4] (setting [12]) and 90% in assay [4] (setting [13]). In assay [5], the “Post-emergence herbicidal activity against wheat (percentage phytotoxicity), +CQC” value came to 10%. For the same molecule, the percent phytotoxicity (crop damage) to wheat at 250 g/ha in assay [5] was determined as 80%.
As for `Cc1cc(C)c(C2C(=O)CC(CCNC(=O)Nc3ccccc3)C2=O)c(C)c1` (centres unmarked) [Compound A9, 1-[2-[2,4-dioxo-3-(2,4,6-trimethylphenyl)cyclopentyl]ethyl]-3-phenyl-urea], the pest or weed control at 250 g/ha was determined as 30% in assay [1] (setting [6]); 60% in assay [1] (setting [7]); 80% in assay [2] (setting [8]); 60% in assay [2] (setting [9]); 80% in assay [3] (setting [10]); 80% in assay [3] (setting [11]). The pest or weed control at 250 g/ha was found to be 90% in assay [4] (setting [12]) and 80% in assay [4] (setting [13]). Also, the “Post-emergence herbicidal activity against wheat (percentage phytotoxicity), +CQC” value in assay [5] is given as 10%. Further, the percent phytotoxicity (crop damage) to wheat at 250 g/ha in assay [5] stood at 40%.
Consider `Cc1cc(-c2ncc(Cl)cc2F)cc(C)c1C1C(=O)CC(CCNC(=O)NC(C)(C)C)C1=O.Cl` (centres unmarked) [Compound A29], for which the pest or weed control at 250 g/ha was 100% in assay [1] (setting [6]); 90% in assay [1] (setting [7]); 100% in assay [2] (setting [8]); 100% in assay [2] (setting [9]); 100% in assay [3] (setting [10]); 90% in assay [3] (setting [11]). The pest or weed control at 250 g/ha in assay [4] (setting [12]) and in assay [4] (setting [13]) was 100% throughout. For the same molecule, the “Post-emergence herbicidal activity against wheat (percentage phytotoxicity), +CQC” value in assay [5] stood at 70%. Besides, the percent phytotoxicity (crop damage) to wheat at 250 g/ha in assay [5] amounted to 90%.
As for `Cc1cc(C)c(C2C(=O)CC(CCNS(=O)(=O)c3ccc(C(F)(F)F)cc3)C2=O)c(C)c1` (centres unmarked) [Compound A74], the pest or weed control at 250 g/ha in assay [1] (setting [6]) was determined as 50%; in assay [1] (setting [7]), 70%; in assay [2] (setting [9]), 90%; in assay [3] (setting [10]), 60%; in assay [3] (setting [11]), 70%; in assay [4] (setting [12]), 60%. Moreover, the pest or weed control at 250 g/ha in assay [4] (setting [13]) is 70%. Besides, the “Post-emergence herbicidal activity against wheat (percentage phytotoxicity), +CQC” value in assay [5] was 0%. For the same molecule, in assay [5], the percent phytotoxicity (crop damage) to wheat at 250 g/ha was 10%.
Consider `Cc1cc(C)c(C2C(=O)CC(CCNS(=O)(=O)c3cccs3)C2=O)c(C)c1` (centres unmarked) [Compound A82], for which the pest or weed control at 250 g/ha in assay [1] (setting [6]) was 40%; in assay [1] (setting [7]), 70%; in assay [2] (setting [8]) it was 30%; in assay [2] (setting [9]) it was 0%; in assay [3] (setting [10]) it was 20%; in assay [3] (setting [11]), 30%. The pest or weed control at 250 g/ha in assay [4] (setting [12]) was 50%; in assay [4] (setting [13]), 70%. Further, in assay [5], the “Post-emergence herbicidal activity against wheat (percentage phytotoxicity), +CQC” value is given as 0%. The percent phytotoxicity (crop damage) to wheat at 250 g/ha in assay [5] worked out at 0%.
On to `Cc1cc(C)c(C2C(=O)CC(CCNC(=O)NC(=O)c3ccc(C(F)(F)F)c(F)c3)C2=O)c(C)c1` (centres unmarked) [Compound A61], for which the pest or weed control at 250 g/ha in assay [1] (setting [6]) amounted to 40%; in assay [1] (setting [7]), 20%; in assay [2] (setting [8]), 0%; in assay [2] (setting [9]), 30%; in assay [3] (setting [10]) it was 70%; in assay [3] (setting [11]) it was 30%. For the same molecule, the pest or weed control at 250 g/ha in assay [4] (setting [12]) worked out at 70%; in assay [4] (setting [13]), 40%. Also, the “Post-emergence herbicidal activity against wheat (percentage phytotoxicity), +CQC” value in assay [5] was determined as 40%. The percent phytotoxicity (crop damage) to wheat at 250 g/ha in assay [5] is 70%.
As for `Cc1cc(-c2ncccc2F)cc(C)c1C1C(=O)CC(CCNC(=O)Nc2ccccn2)C1=O.Cl` (centres unmarked) [Compound A24], the pest or weed control at 250 g/ha in assay [1] (setting [6]) amounted to 60%; in assay [1] (setting [7]), 10%; in assay [2] (setting [8]) it was 100%; in assay [2] (setting [9]) it was 70%; in assay [3] (setting [10]), 100%; in assay [3] (setting [11]) it was 90%. Moreover, the pest or weed control at 250 g/ha turned out to be 90% in assay [4] (setting [12]) and 80% in assay [4] (setting [13]). The “Post-emergence herbicidal activity against wheat (percentage phytotoxicity), +CQC” value in assay [5] was 70%. The percent phytotoxicity (crop damage) to wheat at 250 g/ha in assay [5] is 80%.
As for `Cc1cc(C)c(C2C(=O)CC(CCNC(=O)NC(=O)c3ccc(F)cc3C(F)(F)F)C2=O)c(C)c1` (centres unmarked) [Compound A69], the pest or weed control at 250 g/ha was 100% in assay [1] (setting [6]); 80% in assay [1] (setting [7]); 90% in assay [2] (setting [8]); 80% in assay [2] (setting [9]); 70% in assay [3] (setting [10]); 70% in assay [3] (setting [11]). In addition, the pest or weed control at 250 g/ha in assay [4] (setting [12]) is 100%; in assay [4] (setting [13]), 80%. Further, the “Post-emergence herbicidal activity against wheat (percentage phytotoxicity), +CQC” value in assay [5] is on record as 80%. For the same molecule, in assay [5], the percent phytotoxicity (crop damage) to wheat at 250 g/ha turned out to be 90%.
Consider `Cc1cc(-n2cc(Cl)cn2)cc(C)c1C1C(=O)CC(CCNC(=O)NC(C)(C)C)C1=O` (centres unmarked) [Compound A21], for which the pest or weed control at 250 g/ha in assay [1] (setting [6]) came out at 90%; in assay [1] (setting [7]) it was 90%; in assay [2] (setting [8]), 100%; in assay [2] (setting [9]) it was 90%; in assay [3] (setting [10]), 100%; in assay [3] (setting [11]), 100%. Moreover, the pest or weed control at 250 g/ha in assay [4] (setting [12]) was found to be 90%; in assay [4] (setting [13]), 80%. Besides, the “Post-emergence herbicidal activity against wheat (percentage phytotoxicity), +CQC” value in assay [5] was determined as 70%. Also, in assay [5], the percent phytotoxicity (crop damage) to wheat at 250 g/ha came to 90%.
